The values that follow are results of earlier work, collected in patent US20030225101A1 (priority 2002, published 2003).

The conditions of series [1]: oral administration.
In series [2] the test system is isolated corpus cavernosum.

Molecules are shown by their SMILES.

For the molecule `CCCc1nn(C)c2c(=O)[nH]c(-c3cc(S(=O)(=O)N4CCN(C)CC4)ccc3OCC)nc12` [sildenafil, 1-[4-ethoxy-3-(6,7-dihydro-1-methyl-7-oxo-3-propyl-1H-pyrazolo[4,3-d]pyrimidin-5-yl)phenylsulphonyl]-4-methylpiperazine], the absolute bioavailability entry in series [1] is listed as “about 40%”. Besides, in series [2], the “direct relaxant effect on isolated corpus cavernosum” value is “no direct relaxant effect”.
